Laboratory results reported in paper PMC9488889, “Insight into mode-of-action and structural determinants of the compstatin family of clinical complement inhibitors” (Nature Communications, 2022).
Where two headings read alike, the source gives them in different places. Bridge positions count the residues as written; N and C are the ends. Square brackets hold non-standard residues; d marks the D form. Peptide text beside a SMILES is read from it. Trp(1-Me) = Cn1cc(C[C@H](N)C(=O)O)c2ccccc21; NMeI = CC[C@H](C)[C@H](NC)C(=O)O; Sar = CNCC(=O)O

Target: T1, C3b (Homo sapiens, UniProt P01024)
T1 construct: the α’NT, MG6^α−8, anchor, and C-terminal complement (CTC) domains of the α-chain that are all shared between C3c and C3b; purchased Complement Technology (Tyler, TX, USA)
Assay: SPR kinetic binding studies on immobilized C3b
Procedure: All compstatin analogues were characterized concerning affinity and kinetic profiles by surface plasmon resonance (SPR) using a Biacore T200 instrument (Cytiva, Piscataway, USA). Experiments were run at 25 °C in HBST buffer (10 mM HEPES, 150 mM NaCl, 0.05% Tween-20, pH 7.4). C3b was immobilized on a carboxymethyl dextran hydrogel chip (CMD200; XanTec, Düsseldorf, Germany) using standard amine coupling in sodium acetate buffer pH 4.5 at a flow rate of 10 µl/min. Immobilization densities of 8000 and 4000 resonance units (RU) were achieved on separate flow cells. A reference flow cell was activated with the same method (NHS/EDC). All active sites were inactivated and blocked with ethanolamine. A single cycle approach at a flow rate of 30 µl/min was used for kinetic analysis by injecting five increasing concentrations of each compound (0.5–40 nM) consecutively without regeneration in-between injections. Individual injections within a cycle were 120 s long with a 60 sec dissociation phase between injections. After the highest concentration of each derivative, a dissociation period of 6,000–14,400 sec was added to ensure complete dissociation in absence of suitable regeneration method. […] Signals from the reference cell from an ensemble of buffer blank injections were subtracted to correct for buffer effects and injection artefacts. Kinetic data was processed with the Biacore T200 Software (version 3.1; Cytiva) using a single-cycle evaluation setup by global fitting each data set to a 1:1 Langmuir binding model. Association and dissociation rate constants (ka and kd, respectively) were fitted, and the equilibration constant KD was calculated based on the following equation: KD = kd/ka. Each assay was performed at least twice and in duplicate injections.

[1] = Table 1, amine-reactive immobilized C3b, 25 °C, average±SD of three independent SPR experiments, read-out: KD
[2] = pH 7.4, read-out: ka, Dataset 1
[3] = pH 7.4, read-out: ka, Dataset 2
[4] = pH 7.4, read-out: ka, Dataset 3
[5] = source data of Table 1, single SPR dataset 1, read-out: KD, Dataset 1
[6] = source data of Table 1, single SPR dataset 2, read-out: KD, Dataset 2
[7] = source data of Table 1, single SPR dataset 3, read-out: KD, Dataset 3

T1 sequence (P01024 23-667 limits assumed): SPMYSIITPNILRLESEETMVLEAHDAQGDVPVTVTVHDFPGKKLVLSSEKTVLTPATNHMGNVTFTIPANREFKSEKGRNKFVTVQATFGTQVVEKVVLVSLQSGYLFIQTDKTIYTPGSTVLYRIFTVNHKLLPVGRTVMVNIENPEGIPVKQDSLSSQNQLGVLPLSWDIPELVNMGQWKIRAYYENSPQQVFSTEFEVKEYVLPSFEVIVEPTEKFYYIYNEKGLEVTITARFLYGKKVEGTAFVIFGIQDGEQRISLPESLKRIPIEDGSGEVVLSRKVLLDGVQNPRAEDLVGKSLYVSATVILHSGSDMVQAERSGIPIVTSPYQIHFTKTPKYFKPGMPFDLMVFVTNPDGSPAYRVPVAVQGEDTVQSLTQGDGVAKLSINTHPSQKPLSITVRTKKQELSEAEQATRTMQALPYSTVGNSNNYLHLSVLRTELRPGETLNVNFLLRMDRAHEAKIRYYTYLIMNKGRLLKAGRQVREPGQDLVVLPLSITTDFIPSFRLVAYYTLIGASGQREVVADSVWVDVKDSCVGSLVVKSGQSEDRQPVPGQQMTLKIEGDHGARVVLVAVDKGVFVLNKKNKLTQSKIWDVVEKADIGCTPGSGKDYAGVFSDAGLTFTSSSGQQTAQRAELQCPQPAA
T1 sequence (P01024 749-1663 limits assumed): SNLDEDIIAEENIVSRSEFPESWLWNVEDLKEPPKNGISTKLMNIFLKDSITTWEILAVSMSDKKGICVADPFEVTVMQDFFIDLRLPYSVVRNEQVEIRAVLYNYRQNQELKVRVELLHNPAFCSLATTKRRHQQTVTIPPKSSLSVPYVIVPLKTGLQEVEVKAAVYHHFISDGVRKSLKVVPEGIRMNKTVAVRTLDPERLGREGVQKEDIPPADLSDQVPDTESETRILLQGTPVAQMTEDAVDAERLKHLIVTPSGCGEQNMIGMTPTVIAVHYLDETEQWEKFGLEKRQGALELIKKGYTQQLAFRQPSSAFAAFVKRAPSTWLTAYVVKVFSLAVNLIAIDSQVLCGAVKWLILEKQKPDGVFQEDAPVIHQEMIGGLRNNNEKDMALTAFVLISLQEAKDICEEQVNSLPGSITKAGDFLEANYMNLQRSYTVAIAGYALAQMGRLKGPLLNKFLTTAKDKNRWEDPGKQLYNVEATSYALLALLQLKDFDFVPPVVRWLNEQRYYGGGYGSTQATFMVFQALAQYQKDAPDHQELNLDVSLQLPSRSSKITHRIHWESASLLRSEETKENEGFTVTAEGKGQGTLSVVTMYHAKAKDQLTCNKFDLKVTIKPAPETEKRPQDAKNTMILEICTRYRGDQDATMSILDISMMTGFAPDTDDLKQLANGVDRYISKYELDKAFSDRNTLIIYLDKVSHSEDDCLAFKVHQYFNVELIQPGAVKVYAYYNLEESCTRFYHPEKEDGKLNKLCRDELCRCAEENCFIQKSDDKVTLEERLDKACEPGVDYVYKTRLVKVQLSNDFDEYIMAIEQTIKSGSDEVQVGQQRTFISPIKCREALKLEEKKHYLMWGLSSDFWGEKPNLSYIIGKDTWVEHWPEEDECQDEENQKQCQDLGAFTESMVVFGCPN

Row | Kd [1] | kon (pH 7.4, read-out: ka) | kon [2] | kon [3] | kon [4] | Kd [5] | Kd [6] | Kd [7] | Compound
1 | 59.1 ± 41.3 nM | 100000 M⁻¹ s⁻¹ | 20000 M⁻¹ s⁻¹ | 120000 M⁻¹ s⁻¹ | 220000 M⁻¹ s⁻¹ | 117 nM | 34.7 nM | 25.5 nM | CC[C@H](C)[C@H](NC(=O)[C@H](N)Cc1ccc(O)cc1)C(=O)N[C@H]1CSSC[C@@H](C(=O)N(C)[C@H](C(N)=O)[C@@H](C)CC)NC(=O)[C@H](CO)NC(=O)[C@H](Cc2c[nH]cn2)NC(=O)[C@H](C)NC(=O)CN(C)C(=O)[C@H](Cc2c[nH]c3ccccc23)NC(=O)[C@H](CO)NC(=O)[C@H](CCC(N)=O)NC(=O)[C@H](Cc2cn(C)c3ccccc23)NC(=O)[C@H](C(C)C)NC1=O [Cp40 D7S/R12S] (H-[dY]ICV[Trp(1-Me)]QSW[Sar]AHSC[NMeI]-NH2; disulfide 3-13)
2 | 5.6 ± 1.3 nM | 100000 M⁻¹ s⁻¹ | 80000 M⁻¹ s⁻¹ | 50000 M⁻¹ s⁻¹ | 170000 M⁻¹ s⁻¹ | 4.85 nM | 7.48 nM | 4.45 nM | CC[C@H](C)[C@H](NC(=O)[C@H](N)Cc1ccc(O)cc1)C(=O)N[C@H]1CSSC[C@@H](C(=O)N(C)[C@H](C(N)=O)[C@@H](C)CC)NC(=O)[C@H](CCCNC(=N)N)NC(=O)[C@H](Cc2c[nH]cn2)NC(=O)[C@H](C)NC(=O)CN(C)C(=O)[C@H](Cc2c[nH]c3ccccc23)NC(=O)[C@H](CO)NC(=O)[C@H](CCC(N)=O)NC(=O)[C@H](Cc2cn(C)c3ccccc23)NC(=O)[C@H](C(C)C)NC1=O [Cp40 D7S] (H-[dY]ICV[Trp(1-Me)]QSW[Sar]AHRC[NMeI]-NH2; disulfide 3-13)
3 |  | 600000 ± 100000 M⁻¹ s⁻¹ | 320000 M⁻¹ s⁻¹ | 670000 M⁻¹ s⁻¹ | 790000 M⁻¹ s⁻¹ |  |  |  | CC[C@H](C)[C@H](NC(=O)[C@H](N)Cc1ccc(O)cc1)C(=O)N[C@H]1CSSC[C@@H](C(=O)N(C)[C@H](C(N)=O)[C@@H](C)CC)NC(=O)[C@H](CCCNC(N)=O)NC(=O)[C@H](Cc2c[nH]cn2)NC(=O)[C@H](C)NC(=O)CN(C)C(=O)[C@H](Cc2c[nH]c3ccccc23)NC(=O)[C@H](CC(=O)O)NC(=O)[C@H](CCC(N)=O)NC(=O)[C@H](Cc2cn(C)c3ccccc23)NC(=O)[C@H](C(C)C)NC1=O [Cp40 R12Cit]
